SMILES strings stand for the structures. Calls of active or inactive are those of the source. The calls are words filed in the database; no cut-off is given here.

The species entered for assay [1] is Felis catus. Briefly: Inhibitory dose was evaluated for the inhibition of the chronotropic response to nerve stimulation using the cat cardioaccelerator nerve preparation. The assay is classed as functional. The conditions noted are these: read-out: ID50 (the source's name).
The species entered for assay [2] is Felis catus. The assay can be described thus: Inhibitory dose was evaluated against cat cardioaccelerator nerve preparation. As to conditions: read-out: ID50 (the source's name). The assay is classed as functional.
For assay [3], the species on record is Felis catus. Briefly: Inhibitory dose was evaluated on the cat cardioaccelerator nerve preparation. Type of assay: functional. The conditions noted are these: read-out: ID50 (the source's name).
Assay [4] has as its target D(2) dopamine receptor (Homo sapiens) (UniProt P14416). Briefly: Potency was evaluated for the activity against Dopamine receptor D2 of cat cardioaccelerator nerve preparation; Active. As to conditions: Felis catus; target entry is the homologue from another species.
Assay [5] has as its system Felis catus. Briefly: Compound at a dose of 100 ug/kg was evaluated for the reversal of the inhibition of nerve stimulation using the cat cardioaccelerator nerve preparation; Reversed inhibition. The assay is classed as functional, organism-based.
In assay [6] the test system is Felis catus. Briefly: Compound at a dose of 50 ug/kg was evaluated for the reversal of the inhibition of nerve stimulation using the cat cardioaccelerator nerve preparation; Reversed inhibition. Type of assay: functional, organism-based.
In assay [7] the target is D(2) dopamine receptor (Homo sapiens) (UniProt P14416). Briefly: Agonistic activity at a dose of 12.3 umol/kg was evaluated in rats with unilateral lesion of the nigrostriatal pathway (post junctional dopamine receptors); Inactive. The assay is classed as functional. The conditions noted are these: Rattus norvegicus, target entry is the homologue from another species.
Assay [8] has as its target T1, Dopamine receptor (Rattus norvegicus) (UniProt P25115+P19020+P30729+P18901+P61169). The assay can be described thus: Antagonistic activity at a dose of 12.3 umol/kg was evaluated in rats with unilateral lesion of the nigrostriatal pathway (post junctional dopamine receptors); Inactive. Type of assay: functional.
For assay [9], the target named is D(2) dopamine receptor (Homo sapiens) (UniProt P14416). Briefly: Antagonistic activity at a dose of 3.08 umol/kg was evaluated against Dopamine receptor D2 in the […] cardioaccelerator nerve preparation; Inactive. Type of assay: functional.
The target is the same in assay [10]. Briefly: Agonistic activity at a dose of 3.08 umol/kg was evaluated against Dopamine receptor D2 in the […] cardioaccelerator nerve preparation; Inactive. Type of assay: functional. The conditions noted are these: Felis catus.
The target is the same in assay [11]. The assay can be described thus: Antagonistic activity at a dose of 3.4 umol/kg was evaluated against Dopamine receptor D2 in the […] cardioaccelerator nerve preparation; Inactive. Type of assay: functional. The conditions noted are these: Felis catus.
The target is the same in assay [12]. Briefly: Agonistic activity at a dose of 3.4 umol/kg was evaluated against Dopamine receptor D2 in the […] cardioaccelerator nerve preparation; Inactive. Type of assay: functional. The conditions noted are these: Felis catus.
Assay [13] has the same target. Briefly: Agonistic activity at a dose of 13.3 umol/kg was evaluated in rats with unilateral lesion of the nigrostriatal pathway (post junctional dopamine receptors); Inactive. Type of assay: functional. As to conditions: Rattus norvegicus, target entry is the homologue from another species.
For assay [14], the target named is T1, Dopamine receptor (Rattus norvegicus). Briefly: Antagonistic activity at a dose of 13.3 umol/kg was evaluated in rats with unilateral lesion of the nigrostriatal pathway (post junctional dopamine receptors); Inactive. The assay is classed as functional.

Chain of D(2) dopamine receptor (Homo sapiens) (P14416 whole entry): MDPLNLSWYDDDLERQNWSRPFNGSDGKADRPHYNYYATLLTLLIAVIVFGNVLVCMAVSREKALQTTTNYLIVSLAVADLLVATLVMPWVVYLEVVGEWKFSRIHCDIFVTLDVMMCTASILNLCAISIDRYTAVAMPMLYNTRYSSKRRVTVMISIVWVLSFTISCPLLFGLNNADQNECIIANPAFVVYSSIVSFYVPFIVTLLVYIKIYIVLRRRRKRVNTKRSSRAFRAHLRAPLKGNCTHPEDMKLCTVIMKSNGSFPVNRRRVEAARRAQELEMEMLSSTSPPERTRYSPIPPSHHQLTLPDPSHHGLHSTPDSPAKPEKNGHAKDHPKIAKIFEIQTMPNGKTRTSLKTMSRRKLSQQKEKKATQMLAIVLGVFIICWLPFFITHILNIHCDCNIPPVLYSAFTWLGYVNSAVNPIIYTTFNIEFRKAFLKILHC

For `CCCN1CCC[C@H]2c3c(OC)ccc(OC)c3CC[C@@H]21`, the ED50 in the assay filed under Felis catus [1] amounted to 1.17 µmol/kg.
As for `CCCN1CCC[C@@H]2Cc3c(OC)ccc(OC)c3C[C@H]21`, the ED50 in the assay filed under Felis catus [2] amounted to 0.032 µmol/kg.
As to `CN1CCc2cccc3c2[C@H]1Cc1ccc(O)c(O)c1-3` [APOMORPHINE], the ED50 in the assay listed under Felis catus [3] worked out at 0.022 µmol/kg.
`CCCN(CCC)C1Cc2cccc(O)c2C1` (stereo not given): in [4], the outcome was Active.
In the case of `O=C(CCCN1CCC(O)(c2ccc(Cl)cc2)CC1)c1ccc(F)cc1`, the outcome with Felis catus [5] and in the assay on Felis catus [6] was Active.
For the compound `CCCN1CCC[C@@H]2c3c(OC)ccc(OC)c3CC[C@@H]21`, the outcome in assay [7], in assay [8], in assay [9] and in assay [10] was inactive.
Turning to `CCCN(CCC)CCc1cc(OC)ccc1OC`, the result in [11], in [12], in assay [13] and in assay [14] was inactive.
`CCCN(CCC)C1CCc2c(O)cccc2C1` (stereo not given): in assay [4], the outcome was Active.
